According to patent US20250339051A1, “DYNAMIC CHEMICAL-EXCHANGE-SATURATION-TRANSFER (CEST) AGENT ENHANCED MRI USING DIRECT WATER SATURATION” (The Johns Hopkins University, priority 2024, published 2025):
Like-named read-outs stand apart in the source and are kept apart here.

What was measured:
brain tumor patients [1] = assay: DS-DGE MRI at 3 T in brain tumor patients with D-Glc infusion; set-up: species or system human; conditions: in vivo
From the text: Four brain tumor patients were studied (one with an IDH-wildtype glioblastoma, two with a grade 2 IDH-mutated astrocytoma, and one with ALK-mutated non-small-cell lung cancer metastases). The project was approved by the local Institutional Review Board, and each participant provided written informed consent. Participants were asked to fast six hours before the study, but clear liquids were permitted. Before the start of the MRI examination, blood was drawn to verify normal baseline glucose levels (3.9-7.0 mM).
Patients were examined on a 3 T Philips Elition RX system (Philips Healthcare, Best, the Netherlands). Pre- and post-contrast enhanced T1-MPRAGE, FLAIR, DS-DGE, DCE and DSC images were acquired T1-MPRAGE: TR/TE/FA=7.5 ms/3.5 ms/8°, FOV=212×212 mm^2, resolution=1.1×1.1×2.2 mm^3, inversion time=755 ms, acquisition time=1 min 46 s, and FLAIR: TR/TE=11,000/120 ms, FOV=212×212 mm^2 resolution=1.1×1.1×2.2 mm^3, inversion time=2800 ms, acquisition time=3 min 51 s.
DS-DGE images were acquired using ten consecutive 50-ms sinc-gaussian pulses (B1peak=0.5 μTtsat=0.5 s), followed by a whole-brain simultaneous multi-slice EPI readout (multi-band factor 3). A total of 27 slices with FOV of 208×208 mm^2 and a resolution of 2.2×2.2×4.4 mm^3 were acquired using TR/TE/FA=1200 ms/17 ms/52°. 32 frequencies were acquired in 38.2 s at offsets: ±[10 (2×), 5.0, 2.5, 2.0, 1.5, 1.2, 1.0, 0.80, 0.70, 0.60, 0.50, 0.40, 0.30, 0.20, 0.10] ppm. In total 40 dynamics (Z-spectra) were acquired. Approximately five minutes into the scan (after the 8th dynamic), D-Glc was administrated intravenously with a power-injector at a rate of 6.25 g/min using hospital-grade D50 glucose (D50, Hospira Inc., Lake Forest, IL; 35 g of D-Glc in 70 mL of water sterile solution prepared by the Johns Hopkins pharmacy), followed by a saline rinse. Total experiment duration was 25.5 min.
The dynamic DS spectrum signal intensities from each voxel were normalized using the average of the second of two acquisitions at ±10 ppm and then fitted to a Lorentzian line shape using the DL-based single Lorentzian fitting neural network (sLoFNet)^43. The linewidths, defined as FWHM in the DL fitting, were used to generate LW maps (in Hz) for each dynamic. The dynamic linewidth maps were rigid motion corrected using Elastix^48 and visually inspected for remaining motion artefacts.
A baseline was calculated by averaging the linewidth maps obtained before infusion. To remove outliers, baseline LWs greater or less than the average±2SD were discarded. LWbase was then calculated by averaging the remaining baseline LWs. Dynamic ΔLW images were obtained by subtracting LWbase from each linewidth dynamic image, LW(t), followed by normalization with LWbase:
Normalized area-under-the-curve (AUC) was calculated by subtracting LWbase from the average of dynamic LWs obtained from infusion start and through the dynamic scan (LWaverage), followed by normalization with LWbase:
Normalized AUC over the infusion block alone was also calculated. Both fitting and calculations were performed in Python.

[2] = cited from earlier work
brain tumor patients [3] = conditions: cited from earlier work
[4] = cited from earlier work; remark: listed apart in the source

What does the source list for `O=C[C@H](O)[C@@H](O)[C@H](O)[C@H](O)CO` [D-glucose]?
ΔLW (DS linewidth change) (brain tumor patients [1]; (ventricular) CSF, 35 g D-glucose infusion, 3 T): ~40%; ΔLW (DS linewidth change) (brain tumor patients [1]; GM/WM, 35 g D-glucose infusion, 3 T): approximately 1%; ΔLW (DS linewidth change) (brain tumor patients [1]; contrast enhanced peri-cavity infiltrative tumor region, recurrent IDH-wildtype glioblastoma patient, during infusion): approximately 15%; ΔLW (DS linewidth change) (brain tumor patients [1]; different tumor types, 35 g D-glucose infusion, 3 T): 5-20%; LW change (brain tumor patients [1]; white matter, lung cancer brain metastases patient): negligible; hydroxyl proton exchange rate ([2]; hydroxyl pool at 0.66 ppm, pH 6.8 (TUMOR EES)): 1500 Hz; hydroxyl proton exchange rate ([2]; hydroxyl pool at 0.66 ppm, pH 7.2, 37° C.): 2900 Hz; hydroxyl proton exchange rate ([2]; hydroxyl pool at 1.28 ppm, pH 6.8 (TUMOR EES)): 3100 Hz; hydroxyl proton exchange rate ([2]; hydroxyl pool at 1.28 ppm, pH 7.2, 37° C.): 6500 Hz; hydroxyl proton exchange rate ([2]; hydroxyl pool at 2.08 ppm, pH 6.8 (TUMOR EES)): 2500 Hz; hydroxyl proton exchange rate ([2]; hydroxyl pool at 2.08 ppm, pH 7.2, 37° C.): 5200 Hz; hydroxyl proton exchange rate ([2]; hydroxyl pool at 2.88 ppm, pH 6.8 (TUMOR EES)): 6000 Hz; hydroxyl proton exchange rate ([2]; hydroxyl pool at 2.88 ppm, pH 7.2, 37° C.): 14300 Hz; DGE MRI effect size (brain tumor patients [3]; contrast enhanced tumor area, LGG and HGG patients, maximum dose 20 g of D-Glc in 100 mL, Bender et al.): ≤ 0.25%; DGE MRI effect size (brain tumor patients [3]; glioblastoma, 3 T, Xu et al.): approximately 1.5%; DGE MRI effect size (brain tumor patients [3]; low and high grade glioma enhancement areas, dose of 25 g, Mo et al.): 0.5-1.5%; DGE MRI signal increase after D-Glc infusion (brain tumor patients [3]; metastases, Wu et al.): ≤ 10%; venous plasma blood glucose average increase ([4]; D-Glc dose of 25 g, N=11, previous DGE MRI study): 9.8 mM; increase in plasma blood glucose ([4]; maximum D-Glc dose of 25 g, previous DGE studies): up to 15 mM
